Reference: patent US8158628B2, “Sulfonylated 1,2,3,4-tetrahydropyrrolo[1,2-a]pyrazine compounds and their use as pharmaceuticals” (Gruenenthal GmbH, priority 2009, dated 2012)

Each molecule was assayed against T1, B1R of the rat (Rattus norvegicus, UniProt P97583) (assay: FLIPR Ca2+ functional assay, B1R antagonism, rat B1R in CHO K1 cells). Conditions: test substance 10 μM; rB1R CHO K1 cells; agonist Des-Arg9 bradykinin at EC80; % of maximum achievable inhibition.
T1 construct: expressed in transfected cells; host or cells: CHO K1 cells (Chinese hamster ovary), stably transfected
T1 sequence (P97583 1-337): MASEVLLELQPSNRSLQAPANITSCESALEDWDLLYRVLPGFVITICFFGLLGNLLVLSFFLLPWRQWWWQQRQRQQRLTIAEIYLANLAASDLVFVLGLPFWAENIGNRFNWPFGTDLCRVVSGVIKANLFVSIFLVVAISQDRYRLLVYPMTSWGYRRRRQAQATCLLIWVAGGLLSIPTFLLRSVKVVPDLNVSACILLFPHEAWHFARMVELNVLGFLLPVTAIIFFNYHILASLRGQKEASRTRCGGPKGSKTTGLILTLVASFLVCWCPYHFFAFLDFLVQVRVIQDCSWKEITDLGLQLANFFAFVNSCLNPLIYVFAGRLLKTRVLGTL
Type: cell-based
Method: The agonistic or antagonistic action of substances on the bradykinin 1 receptor (B1R) of the human and rat species can be quantified with ectopically expressing cell lines (CHO K1 cells) and with the aid of a Ca^2+-sensitive dye (Fluo-4) using a fluorescent imaging plate reader (FLIPR). The value in % activation is based on the Ca^2+ signal after addition of Lys-Des-Arg^9 bradykinin (0.5 nM) or Des-Arg^9 bradykinin (100 nM). Antagonists lead to a suppression of the Ca^2+ influx following administration of the agonist. The % inhibition in comparison with the maximum achievable inhibition is indicated.
1. Functional Investigation on the Bradykinin 1 Receptor (B1R) The agonistic or antagonistic action of substances can be determined on the bradykinin 1 receptor (B1R) of the human and rat species with the following assay. According to this assay, the Ca^2+ inflow through the channel is quantified with the aid of a Ca^2+-sensitive dye (Fluo-4 type, Molecular Probes Europe BV, Leiden, Netherlands) in a fluorescent imaging plate reader (FLIPR, Molecular Devices, Sunnyvale, USA). 2. Method: Chinese hamster ovary cells (CHO K1 cells) which are stably transfected with the human B1R gene (hB1R cells) or the B1R gene of the rat (rB1R cells) are used. For functional investigations these cells are plated-out onto black 96-well plates with a clear base (BD Biosciences, Heidelberg, Germany or Greiner, Frickenhausen, Germany) in a density of 20,000-35,000 cells/well. Overnight the cells are incubated at 37° C. and 5% CO2 in culture medium (hB1R cells: Ham's Nutrient Mixture F12, Gibco Invitrogen GmbH, Karlsruhe, Germany or DMEM, Sigma-Aldrich, Taufkirchen, Germany; rB1R cells: D-MEM/F12, Gibco Invitrogen, Karlsruhe, Germany) with 10 vol. % FBS (foetal bovine serum, Gibco Invitrogen GmbH, Karlsruhe, Germany or PAN Biotech GmbH, Aidenbach, Germany).
On the following day the cells are loaded with 2.13 μM Fluo-4 (Molecular Probes Europe BV, Leiden, Netherlands) in HBSS buffer (Hank's buffered saline solution, Gibco Invitrogen GmbH, Karlsruhe, Germany) with 2.5 mM probenecid (Sigma-Aldrich, Taufkirchen, Germany) and 10 mM HEPES (Sigma-Aldrich, Taufkirchen, Germany) for 60 min at 37° C. The plates are subsequently washed twice with HBSS buffer, and HBSS buffer which additionally contains 0.1% BSA (bovine serum albumin; Sigma-Aldrich, Taufkirchen, Germany), 5.6 mM glucose and 0.05% gelatine (Merck KGaA, Darmstadt, Germany) is added. After a further incubation of 20 minutes at RT, the plates are inserted into the FLIPR for Ca^2+ measurement. Alternatively they are washed with buffer A (15 mM HEPES, 80 mM NaCl, 5 mM KCl, 1.2 mM CaCl2, 0.7 mM MgSO4, 2 g/l glucose, 2.5 mM probenecid) and loaded with buffer A with added 2.5 μM Fluo-4 and 0.025% Pluronic F127 (Sigma-Aldrich, Taufkirchen, Germany). The cells are then washed twice with buffer A and incubated for 30 minutes with buffer A, which additionally contains 0.05% BSA and 0.05% gelatine, at RT and then used for Ca^2+ measurement in the FLIPR. The Ca^2+-dependent fluorescence is measured here before and after addition of substances (λex=488 nm, λem=540 nm). The quantification is performed by measuring the highest fluorescence intensity (FC, fluorescence counts) over time.
The FLIPR protocol comprises two additions of substance. Test substances (10 μM) are first pipetted onto the cells and the Ca^2+ inflow is compared with the control (hB1R: Lys-Des-Arg^9 bradykinin >=50 nM; rB1R: Des-Arg^9 bradykinin 10 μM). The value in % activation based on the Ca^2+ signal after addition of Lys-Des-Arg^9 bradykinin (>=50 nM) or Des-Arg^9 bradykinin (10 μM) is obtained therefrom. After incubation for 10-20 minutes, Lys-Des-Arg^9 bradykinin (hB1R) or Des-Arg^9 bradykinin (rB1R) is applied in the EC80 concentration and the inflow of Ca^2+ is likewise determined.
Antagonists lead to a suppression of the Ca^2+ inflow. The % inhibition in comparison with the maximum achievable inhibition is calculated. […]

| SMILES | inhibition at 10 µM [%] |
| --- | --- |
| Cc1cccc(Cl)c1S(=O)(=O)N1CCn2cccc2C1CC(=O)N(C)C(CN1CCOCC1)c1ccccc1 (stereo not shown) [Example 259, 2-[2-[(2-Chloro-6-methyl-phenyl)sulfonyl]-1,2,3,4-tetrahydro-pyrrolo[1,2-a]pyrazin-1-yl]-N-methyl-N-(2-morpholin-4-yl-1-phenyl-ethyl)-acetamide] | 4.54 |
| Cc1cccc(Cl)c1S(=O)(=O)N1CCn2cccc2C1CC(=O)N1CCN(Cc2ccc3c(c2)OCO3)CC1 (stereo not shown) [Example 252, 1-[4-(1,3-Benzodioxol-5-yl-methyl)-piperazin-1-yl]-2-[2-[(2-chloro-6-methyl-phenyl)sulfonyl]-1,2,3,4-tetrahydro-pyrrolo[1,2-a]pyrazin-1-yl]-ethanone] | -10.5 |
| O=C(CC1c2cccn2CCN1S(=O)(=O)c1cccc(C(F)(F)F)c1)N1CCN(c2ccccc2F)CC1 (stereo not shown) [Example 186, 1-[4-(2-Fluorophenyl)-piperazin-1-yl]-2-[2-[[3-(trifluoromethyl)phenyl]sulfonyl]-1,2,3,4-tetrahydro-pyrrolo[1,2-a]pyrazin-1-yl]-ethanone] | 24.4 |
| Cc1cccc(Cl)c1S(=O)(=O)N1CCn2cccc2C1CC(=O)NCCN1CCCC1 (stereo not shown) [Example 153, 2-[2-[(2-Chloro-6-methyl-phenyl)sulfonyl]-1,2,3,4-tetrahydro-pyrrolo[1,2-a]pyrazin-1-yl]-N-(2-pyrrolidin-1-yl-ethyl)-acetamide] | 15.8 |
| Cc1cccc(Cl)c1S(=O)(=O)N1CCn2cccc2C1CC(=O)N1CCN(c2ncccn2)CC1 (stereo not shown) [Example 162, 2-[2-[(2-Chloro-6-methyl-phenyl)sulfonyl]-1,2,3,4-tetrahydro-pyrrolo[1,2-a]pyrazin-1-yl]-1-(4-pyrimidin-2-yl-piperazin-1-yl)-ethanone] | 25.2 |
| COc1cc(C)c(S(=O)(=O)N2CCn3cccc3C2CC(=O)N2CCN(Cc3c(C)cc(C)cc3C)CC2)c(C)c1 (stereo not shown) [Example 239, 2-[2-[(4-Methoxy-2,6-dimethyl-phenyl)sulfonyl]-1,2,3,4-tetrahydro-pyrrolo[1,2-a]pyrazin-1-yl]-1-[4-[(2,4,6-trimethyl-phenyl)-methyl]-piperazin-1-yl]-ethanone] | -8.74 |
| O=C(CC1c2cccn2CCN1S(=O)(=O)c1ccccc1)N1CCN(c2ncccn2)CC1 (stereo not shown) [Example 179, 2-[2-(Benzenesulfonyl)-1,2,3,4-tetrahydro-pyrrolo[1,2-a]pyrazin-1-yl]-1-(4-pyrimidin-2-yl-piperazin-1-yl)-ethanone] | 20.8 |
| COc1cc(C)c(S(=O)(=O)N2CCn3cccc3C2CC(=O)N2CCN(CCn3c(C)ccc3C)CC2)c(C)c1 (stereo not shown) [Example 147, 1-[4-[2-(2,5-Dimethyl-1H-pyrrol-1-yl)-ethyl]-piperazin-1-yl]-2-[2-[(4-methoxy-2,6-dimethyl-phenyl)sulfonyl]-1,2,3,4-tetrahydro-pyrrolo[1,2-a]pyrazin-1-yl]-ethanone] | 86.5 |
| O=C(CC1c2cccn2CCN1S(=O)(=O)c1ccccc1)N1CCC(N2CCOCC2)CC1 (stereo not shown) [Example 176, 2-[2-(Benzenesulfonyl)-1,2,3,4-tetrahydro-pyrrolo[1,2-a]pyrazin-1-yl]-1-(4-morpholin-4-yl-piperidin-1-yl)-ethanone] | 26.7 |
| COc1cc(C)c(S(=O)(=O)N2CCn3cccc3C2CC(=O)NCC2CCN(Cc3ccccc3)C2)c(C)c1 (stereo not shown) [Example 151, N-[(1-Benzyl-pyrrolidin-3-yl)-methyl]-2-[2-[(4-methoxy-2,6-dimethyl-phenyl)sulfonyl]-1,2,3,4-tetrahydro-pyrrolo[1,2-a]pyrazin-1-yl]-acetamide] | 104 |
| Cc1cccc(Cl)c1S(=O)(=O)N1CCn2cccc2C1CC(=O)N1CCC(CCN2CCCCC2)CC1 (stereo not shown) [Example 165, 2-[2-[(2-Chloro-6-methyl-phenyl)sulfonyl]-1,2,3,4-tetrahydro-pyrrolo[1,2-a]pyrazin-1-yl]-1-[4-(2-piperidin-1-yl-ethyl)-piperidin-1-yl]-ethanone] | 55.8 |
| Cc1cccc(Cl)c1S(=O)(=O)N1CCn2cccc2C1CC(=O)NCC1CCN(Cc2ccccc2)C1 (stereo not shown) [Example 166, N-[(1-Benzyl-pyrrolidin-3-yl)-methyl]-2-[2-[(2-chloro-6-methyl-phenyl)sulfonyl]-1,2,3,4-tetrahydro-pyrrolo[1,2-a]pyrazin-1-yl]-acetamide] | 99.1 |
| Cc1cccc(Cl)c1S(=O)(=O)N1CCn2cccc2C1CC(=O)N1CCN(CCO)CC1 (stereo not shown) [Example 263, 2-[2-[(2-Chloro-6-methyl-phenyl)sulfonyl]-1,2,3,4-tetrahydro-pyrrolo[1,2-a]pyrazin-1-yl]-1-[4-(2-hydroxy-ethyl)-piperazin-1-yl]-ethanone] | 2.37 |
| COc1ccc(CN2CCN(C(=O)CC3c4cccn4CCN3S(=O)(=O)c3ccccc3)CC2)cc1 (stereo not shown) [Example 233, 2-[2-(Benzenesulfonyl)-1,2,3,4-tetrahydro-pyrrolo[1,2-a]pyrazin-1-yl]-1-[4-[(4-methoxyphenyl)-methyl]-piperazin-1-yl]-ethanone] | 20.6 |
| CC1CCCC(C)N1CCCNC(=O)CC1c2cccn2CCN1S(=O)(=O)c1cccc(C(F)(F)F)c1 (stereo not shown) [Example 184, N-[3-(2,6-Dimethyl-piperidin-1-yl)-propyl]-2-[2-[[3-(trifluoromethyl)phenyl]sulfonyl]-1,2,3,4-tetrahydro-pyrrolo[1,2-a]pyrazin-1-yl]-acetamide] | 19.4 |
| CCN1CCN(C(=O)CC2c3cccn3CCN2S(=O)(=O)c2cccc(C(F)(F)F)c2)CC1 (stereo not shown) [Example 187, 1-(4-Ethyl-piperazin-1-yl)-2-[2-[[3-(trifluoromethyl)phenyl]sulfonyl]-1,2,3,4-tetrahydro-pyrrolo[1,2-a]pyrazin-1-yl]-ethanone] | 18.3 |
| COc1cc(C)c(S(=O)(=O)N2CCn3cccc3C2CC(=O)NCCCN2CCOCC2)c(C)c1 (stereo not shown) [Example 142, 2-[2-[(4-Methoxy-2,6-dimethyl-phenyl)sulfonyl]-1,2,3,4-tetrahydro-pyrrolo[1,2-a]pyrazin-1-yl]-N-(3-morpholin-4-yl-propyl)-acetamide] | 37.9 |
| Cc1cccc(Cl)c1S(=O)(=O)N1CCn2cccc2C1CC(=O)N1CCC(N2CCCCC2)CC1 (stereo not shown) [Example 160, 2-[2-[(2-Chloro-6-methyl-phenyl)sulfonyl]-1,2,3,4-tetrahydro-pyrrolo[1,2-a]pyrazin-1-yl]-1-(4-piperidin-1-yl-piperidin-1-yl)-ethanone] | 42.8 |
| O=C(CC1c2cccn2CCN1S(=O)(=O)c1ccc(C(F)(F)F)cc1Cl)N1CCCCC1 (stereo not shown) [Example 19, 2-(2-(2-Chloro-4-(trifluoromethyl)phenylsulfonyl)-1,2,3,4-tetrahydropyrrolo[1,2-a]pyrazin-1-yl)-1-(piperidin-1-yl)ethanone] | -7.98 |
